Test: Adverse outcome after a Depo-Provera shot for endometrial treatment
Details: inventor themself, one shot, 1987; attributed to the preservative in the drug

Q: Which “adverse result of treatment” value does the source give for CC(=O)O[C@]1(C(C)=O)CC[C@H]2[C@@H]3C[C@H](C)C4=CC(=O)CC[C@]4(C)[C@H]3CC[C@@]21C [Depo-Provera] here?
A: Its value is “retinal atrophy”.

Source: patent US20210299204A1 (priority 2020, published 2021)
